Values joined by “and” are separate entries in the source; they are usually repeats but may differ in a detail not shown here. Equal values may be shown once.
Assays:
DENV-2 [1] = assay: Viral RNA replication assay (RT-qPCR); assay type: cell-based, dengue virus; conditions: 1 µM added at 1 hpi versus 2′CMA 20 µM, A549 cells, DENV-2 MOI 5
Experimental: Viral infection (MOI 5) and drug treatment were performed as described for the virus translation assay. Cells were harvested for real-time RT-PCR analysis after removing the cell-free viruses at 1, 2, 3, 6, 9, 12, 18, and 27 hpi. Viral RNA was quantified and normalized with actin RNA as described for the virus binding assay.

A549 cells [2] = assay: LDH release cytotoxicity assay; assay type: cell-based, human; conditions: 24 h
Experimental: (§1) Cells were treated with compounds at the indicated concentrations for 24 h. The release of lactate dehydrogenase (LDH) was measured using a Cytotoxicity Detection Kit (Roche, Basel, Switzerland) after removing cell debris. Cells treated with 1% Triton X-100 were used to determine the maximal LDH release.

[3] = LDH release cytotoxicity assay; assay type: cell-based, human; conditions: human, A549 cells
Experimental: as §1

DENV-2 [4] = assay: Viral translation assay (NS3 western blot); assay type: cell-based, dengue virus; conditions: 1 µM added at 1 hpi, A549 cells, DENV-2 MOI 20
Experimental: A549 cells absorbed with DENV-2 (MOI 20) at 4 °C for 1 h were washed to remove unbound viruses. After incubating at 37 °C for 1 h to allow viral entry, cells were treated with P12-23 (1 µM), P12-34 (1 µM) or 2′-c-methyladenosine (20 µM). Cells were harvested at 2, 3, 4, and 6 hpi for western blot analysis as previously described[46] with an anti-NS3 mAb[47] and an anti-actin mAb (NB600-501; Novus Biologicals, Littleton, CO, USA). Protein expression levels were quantified using ImageJ.

DENV-2-eGFP = assay: microbe, parasite or virus in culture; assay type: cell-based, dengue virus
Experimental: (§2) Approximately 50% of confluent cells seeded in 96-well plates were infected with viruses in the presence of drugs or DMSO as a solvent control. At 24 h post-infection (hpi), cells were fixed with 4% paraformaldehyde at room temperature (RT) for 20 min, permeated with a 0.5% Triton X-100 buffer for 2 min, and blocked with 3% BSA for 30 min. Nuclei were stained with DAPI (Sigma) at RT for 20 min. Viral NS3 was stained with a mouse anti-NS3 monoclonal antibody (mAb)[47] followed by staining with an Alexa Fluor 488-conjugated goat anti-mouse IgG antibody (ThermoFisher) at RT for 1 h. Nine images from different fields per well were acquired and analyzed using an ImageXpress Micro XLS Widefield High-Content Analysis System (Molecular Devices, Sunnyvale, USA). To quantify viral infection, the fluorescence intensities of viral NS3 or eGFP from the reporter virus were measured using MetaXpress® (Molecular Devices, Sunnyvale, USA) and were calculated with a mock control (infection as 0%) and a DMSO solvent control (infection as 100%).

A549 cells [5] = assay: ER stress and autophagy western blot in A549 cells; assay type: cell-based, human; conditions: 1 µM, 24 h
Experimental: Supplementary figure 2. […] A549 cells with or without DENV-2 (MOI 5) infection were treated with P12-23 (1 μM), tunicamycin (TM) (5 μg/ml), thapsigargin (TG) (0.5 μM), or chemical chaperon 4-Phenylbutyric acid (4-PBA) (10 mM) for 24 h. Cell lysates were harvested for western blot analysis with antibodies against the indicated proteins.

DENV-2 [6] = assay: Viral binding assay; assay type: cell-based, dengue virus; conditions: 1 µM, A549 cells, DENV-2 MOI 5, 4 °C 1 h
Experimental: A549 cells and DENV-2 separately pretreated with P12-23 (1 µM), P12-34 (1 µM) or heparin (100 unit/ml) at 37 ℃ for 1 h were mixed to allow for viral adsorption at a multiplicity of infection (MOI) of 5 at 4 °C for 1 h. After washing off unbound viruses, RNA was extracted using an RNeasy® Mini Kit (QIAGEN, Hilden, Germany), and viral titers were quantified by real-time RT-PCR as previously described[48] using DENV-2 primers (5′-[…]-3′ and 5′-[…]-3′) and β-actin primers (5′-[…]-3′ and 5′-[…]-3′). After the RNA was normalized to the internal control in each sample, the relative level of viral RNA was determined using the DMSO solvent control.

DENV-2 [7] = assay: Viral entry assay; assay type: cell-based, dengue virus; conditions: 1 µM, A549 cells, DENV-2 MOI 5
Experimental: A549 cells pretreated with P12-23 (1 µM), P12-34 (1 µM) or Pitstop®2 (5 µM) at 37 ℃ for 1 h were absorbed with DENV-2 (MOI 5) at 4 °C for 1 h. After removing the unbound viruses, cells were shifted to 37 ℃ for 30 min for viral entry. The cell surface-associated viruses were then removed by treatment with trypsin-EDTA (ThermoFisher) at 37 °C for 10 min. Viral entry indicated by E protein positivity was determined using a BD FACSCalibur Flow Cytometer (BD) after immunofluorescent staining with an anti-E mAb[47].

ZIKV = assay: High-content image analysis of ZIKV infection (NS3) in A549 cells; assay type: cell-based, Zika virus; conditions: ZIKV
Experimental: as §2

JEV-eGFP = assay: microbe, parasite or virus in culture; assay type: cell-based, Japanese encephalitis virus
Experimental: as §2

## CC(C)(N)C(=O)Nc1ccc(-n2cc(C(F)(F)F)cc2-c2ccc3c(ccc4ccccc43)c2)cc1 [P12-23]
DENV-2 [1]
  suppression of intracellular viral RNA replication: more potent than 2′CMA
A549 cells [2]; A549 cells
  CC50: 20500 ± 100 nM
A549 cells [2]; human A549 cells
  noncytotoxic concentrations: ≤ 12.5 µM
[3]
  CC50 at 24 h: ~20000 nM
DENV-2 [4]
  effect on NS3 levels at early stage of infection (viral translation): did not reduce NS3 levels until 4~6 h post-infection
DENV-2-eGFP; DENV-2-eGFP, A549 cells
  SI (CC50/IC50): 297 and 296.7 ± 35.1
DENV-2-eGFP; Dengue virus, DENV2, A549, 24 h
  IC50: 69.7 ± 8.9 nM
A549 cells [5]
  induction of ER stress (GRP78, eIF2α phosphorylation) or autophagy (LC3B form II): did not significantly induce ER stress
DENV-2 [6]
  effect on viral binding: no suppressive effect
DENV-2 [7]
  effect on viral entry: no suppressive effect
ZIKV; A549 cells
  SI (CC50/IC50): 158 ± 13.6
  relative potency versus AR-12 (fold): ~ 10 fold
ZIKV; Zika virus, MOI 0.5, A549 cells, 24 h
  IC50: 130 ± 11.7 nM
JEV-eGFP; JEV, A549 cells
  relative potency versus AR-12 (fold): ~ 10 fold
JEV-eGFP; JEV-eGFP, A549 cells
  SI (CC50/IC50): 385.5 ± 11.8
JEV-eGFP; Japanese encephalitis virus, A549, 24 h
  IC50: 53.2 ± 1.6 nM

## O=C(N[C@@H]1CCCc2c1[nH]c1ccc(Cl)cc21)c1ccccn1 [GSK983, reference compound]
DENV-2-eGFP; A549 cells, DENV-2-eGFP MOI 5, reversed by exogenous uridine 50 µg/ml
  effect on DENV replication: reduced DENV replication in a dose-dependent manner
